Assay results published in patent publication US20260165325A1, “NEW SUBSTITUTED TETRAHYDROBENZOXAZEPINE” (BASF SE, priority 2022, published 2026).

Assays:
Alternaria solani = assay: Activity against the early blight pathogen Alternaria solani in the microtiterplate test; type: cell-based; settings: 31 ppm active substance; MTP measured at 405 nm 7 days after inoculation, 18° C.
Sclerotinia sclerotiorum = assay: Preventative fungicidal control of white mold on oilseed rape caused by Sclerotinia sclerotiorum; type: in vivo; settings: 100 g/ha, assessed after 14 days, untreated plants 100% infected
Description: The compound was dissolved in a mixture of acetone and/or dimethylsulfoxide and the wetting agent/emulsifier Wettol, which is based on ethoxylated alkylphenoles, in a ratio (volume) solvent-emulsifier of 99 to 1 to give a total volume of 5 ml. Subsequently, water was added to total volume of 100 ml. This stock solution was then diluted with the described solvent-emulsifier-water mixture to the final concentration given in the table below. Oilseed rapes were grown in pots to the 13 to 14 leaf stage. These plants were sprayed to run-off with previously described spray solution, containing the concentration of active ingredient or their mixture mentioned in the table below. The plants could air-dry. The next day the applicated rape petals were fixed with 25 μl of 2.5% methylcellulose on leaf 1 and 2. 25 μl of a spore suspension of Sclerotinia sclerotiorum was pipetted on each fixed rape petal. After 14 days at 20° C. and a relative humidity of 60% the extent of fungal attack on the leaves was visually assessed as % diseased leaf area.

Fusarium culmorum = assay: Activity against Fusarium culmorum in the microtiterplate test; type: cell-based; settings: 31 ppm active substance; MTP measured at 405 nm 7 days after inoculation, 18° C.
Description: The active compounds were formulated separately as a stock solution having a concentration of 10000 ppm in dimethyl sulfoxide.
The stock solutions were mixed according to the ratio, pipetted onto a micro titer plate (MTP) and diluted with water to the stated concentrations. A spore suspension of Fusarium culmorum in an aqueous biomalt or yeast-bactopeptone-glycerine or DOB solution was then added. The plates were placed in a water vapor-saturated chamber at a temperature of 18° C. Using an absorption photometer, the MTPs were measured at 405 nm 7 days after the inoculation.

Row | SMILES | growth of the pathogen (Alternaria solani) [%] | growth of the pathogen (% diseased leaf area) (Sclerotinia sclerotiorum) | growth of the pathogen (Fusarium culmorum) [%]
1 | Cc1cc(C2NC(C)C(C)(C)Oc3c(F)cccc32)cnc1C(F)F (mixture of isomers) [Ex-7] | 23 | at most 1% | –
2 | Cc1cc(C2c3ccccc3OCC3(CC3)N2C)cnc1C(F)F (centres unmarked) [Ex-1, 5-(6-(difluoromethyl)-5-methylpyridin-3-yl)-4-methyl-4,5-dihydro-2H-spiro[benzo[f][1,4]oxazepine-3,1′-cyclopropane]] | 23 | – | 1
3 | Cc1cc(C2NC(C)C(C)(C)Oc3c(F)cccc32)cnc1C (mixture of isomers) [Ex-6] | 23 | – | –
